Experimental data from PubChem BioAssay (NCI).
Several values for one entry are separate records, joined by “and”; a condition that tells them apart may be missing. Equal entries are not always repeated.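 Cells were grown in 96-well plates and exposed to each compound for 48 hours at five concentrations; endpoints were interpolated linearly between bracketing concentrations, or set to the highest concentration if not reached. GI50 is the concentration that inhibits growth by half. TGI: concentration producing complete growth inhibition.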

These molecules were tested on SR leukemia (assay: NCI anticancer screen, dose series, 48 h).
Molecule `O=C1c2ccccc2C(=O)C1(O)c1c[nH]c2ccccc12` has a TGI greater than 100 µM. `O=C(Nc1cc(Cl)c(Cl)cc1Cl)C(=O)C1C(=O)NC(=S)NC1=O` gave a TGI greater than 100 µM. `CCCCNC1CCCCC[C@H]1O` (stereo partly drawn) gave a TGI greater than 100 µM. Work on `CCCCCCCCCCCCCCCC(=O)OCC(C[As](=O)(O)O)OC(=O)CCCCCCCCCCCCCCC` (stereo not drawn) yielded a TGI greater than 100 µM. For `CNC(=S)/N=C(\N)N(C)C`, the TGI was greater than 100 µM. With `CC(=O)C1Cn2c(nc3ccccc32)C[Se]1` (stereo not drawn) the TGI was 6.96 µM. In the case of `COc1cc(Cc2nccc3cc(OC)c(OC)cc23)c(C(C)=O)cc1OC`, the TGI is reported as greater than 750 µM. In the case of `CN(C)CCC1(C2=CCCC2)CC/C(=C\c2ccc(Cl)cc2)C1=O` (stereo not drawn), the TGI is reported as 7.42 µM. `CC1=CC(C)(C)N=C2SC(c3ccc(N)cc3)=NN12` showed a TGI greater than 72.1 µM.

What follows are molecules tested on MDA-MB-231 breast (assay: NCI anticancer screen, dose series, 48 h).
For `COc1ccc(C2=C(Cl)c3cc(OC)c(OC)cc3C2Cl)cc1` (stereo not drawn), the TGI was 36.6 µM. In the case of `CCCCCCCCCCCCCCCC(=O)OCC(C[As](=O)(O)O)OC(=O)CCCCCCCCCCCCCCC` (stereo not drawn), the TGI is reported as greater than 100 µM.

Each molecule was assayed on M19-MEL melanoma (assay: NCI anticancer screen, dose series, 48 h).
With `COc1ccc(C2=C(Cl)c3cc(OC)c(OC)cc3C2Cl)cc1` (stereo not drawn) the TGI was 35.8 µM. For `O=C(/C=C/c1ccc(Cl)c(Cl)c1)c1ccc2ccccc2c1`, the TGI was greater than 100 µM. Molecule `CCOC(=O)C(=O)Nc1ccccc1CC` has a TGI greater than 100 µM. `Cc1[nH]c(=O)nc2[nH][nH]c(=O)c12` was tested, and the TGI was greater than 100 µM. `Cc1cc(NS(=O)(=O)c2ccc(Nc3c4ccccc4nc4c(C(=O)N5CCN(CCO)CC5)cccc34)cc2)no1` gave a TGI greater than 100 µM. In the case of `COc1cc2[nH]c3c(c2cc1OC)CCN[C@]31CC[C@]2(CC3c4c(cc(OC)c(O)c42)CCN3C)C[C@H]1OC` (stereo partly drawn), the TGI is reported as 32.9 µM. `O=C1c2ccccc2C(=O)C1(O)c1c[nH]c2ccccc12` gave a TGI greater than 100 µM. For `c1ccc(C2N3CCCCC3[C@@H]3c4[nH]c5ccccc5c4CCN23)nc1` (stereo partly drawn), the TGI was greater than 100 µM. Work on `O=C(Nc1cc(Cl)c(Cl)cc1Cl)C(=O)C1C(=O)NC(=S)NC1=O` yielded a TGI greater than 100 µM. Work on `COc1ccc(CN2CC(C)(C)C2=O)c(OC)c1` yielded a TGI greater than 100 µM. In the case of `O=C(O)CNS(=O)(=O)c1ccc(NC(=O)c2ccc([N+](=O)[O-])cc2)cc1`, the TGI is reported as greater than 100 µM. In the case of `CCCCNC1CCCCC[C@H]1O` (stereo partly drawn), the TGI is reported as greater than 100 µM. With `COc1ccc2c3c([nH]c2c1[N+](=O)[O-])C(C)N(C)CC3` (stereo not drawn) the TGI was greater than 100 µM. Work on `CCOC(=O)N[C@@H]1C(CC(=O)OC)O[C@H]2OC(C)(C)O[C@H]21` (stereo partly drawn) yielded a TGI greater than 100 µM. For `CCCCCCCCCCCCCCCC(=O)OCC(C[As](=O)(O)O)OC(=O)CCCCCCCCCCCCCCC` (stereo not drawn), the TGI was greater than 100 µM. Molecule `COc1cc(/C=C/c2ccc(OC)c(O)c2)cc(OC)c1` has a TGI of 30.9 µM. `O=C(Nc1ccccc1-c1nc2ccccc2[nH]c1=O)c1ccccc1` showed a TGI of 91.2 µM. Molecule `C=C(C)CCN[Si](c1ccccc1)(c1ccccc1)C(C)(C)C` has a TGI of 38 µM. In the case of `CC1=[N+]([O-])c2ccccc2C(=O)C1=O`, the TGI is reported as greater than 100 µM. With `CNC(=S)/N=C(\N)N(C)C` the TGI was greater than 100 µM. `CC(=O)C1Cn2c(nc3ccccc32)C[Se]1` (stereo not drawn) was tested, and the TGI was 4.07 µM. With `COc1cc(Cc2nccc3cc(OC)c(OC)cc23)c(C(C)=O)cc1OC` the GI50 was greater than 750 µM and the TGI was 223 µM and > 750 µM. For `CN(C)CCC1(C2=CCCC2)CC/C(=C\c2ccc(Cl)cc2)C1=O` (stereo not drawn), the TGI was 13.3 µM. Work on `CC1=CC(C)(C)N=C2SC(c3ccc(N)cc3)=NN12` yielded a TGI greater than 100 µM. For `O=C1C2C3C=C4c5ccccc5N(c5ccccc5)C4(C2C(=O)N1c1ccc([N+](=O)[O-])cc1)[C@H]1C(=O)N(c2ccc([N+](=O)[O-])cc2)C(=O)[C@@H]31` (stereo partly drawn), the TGI was greater than 100 µM.

These molecules were tested on LXFL 529 NSCLC (assay: NCI anticancer screen, dose series, 48 h).
`COc1ccc(C2=C(Cl)c3cc(OC)c(OC)cc3C2Cl)cc1` (stereo not drawn) gave a TGI of 28.4 µM. `O=C(/C=C/c1ccc(Cl)c(Cl)c1)c1ccc2ccccc2c1` showed a TGI greater than 100 µM. `CCOC(=O)C(=O)Nc1ccccc1CC` was tested, and the TGI was greater than 100 µM. For `Cc1[nH]c(=O)nc2[nH][nH]c(=O)c12`, the TGI was greater than 100 µM. With `Cc1cc(NS(=O)(=O)c2ccc(Nc3c4ccccc4nc4c(C(=O)N5CCN(CCO)CC5)cccc34)cc2)no1` the TGI was greater than 100 µM. `COc1cc2[nH]c3c(c2cc1OC)CCN[C@]31CC[C@]2(CC3c4c(cc(OC)c(O)c42)CCN3C)C[C@H]1OC` (stereo partly drawn) gave a TGI of 61 µM. Work on `O=C1c2ccccc2C(=O)C1(O)c1c[nH]c2ccccc12` yielded a TGI greater than 100 µM. Work on `c1ccc(C2N3CCCCC3[C@@H]3c4[nH]c5ccccc5c4CCN23)nc1` (stereo partly drawn) yielded a TGI greater than 100 µM. For `O=C(Nc1cc(Cl)c(Cl)cc1Cl)C(=O)C1C(=O)NC(=S)NC1=O`, the TGI was greater than 100 µM. For `CCOC(=O)/C(C)=C(/O)C(=O)OCC`, the TGI was greater than 100 µM. For `O=C(O)CNS(=O)(=O)c1ccc(NC(=O)c2ccc([N+](=O)[O-])cc2)cc1`, the TGI was greater than 100 µM. With `CCCCNC1CCCCC[C@H]1O` (stereo partly drawn) the TGI was greater than 100 µM. `COc1ccc2c3c([nH]c2c1[N+](=O)[O-])C(C)N(C)CC3` (stereo not drawn) was tested, and the TGI was greater than 100 µM. With `CCOC(=O)N[C@@H]1C(CC(=O)OC)O[C@H]2OC(C)(C)O[C@H]21` (stereo partly drawn) the TGI was greater than 100 µM. `CCCCCCCCCCCCCCCC(=O)OCC(C[As](=O)(O)O)OC(=O)CCCCCCCCCCCCCCC` (stereo not drawn) was tested, and the TGI was greater than 100 µM. For `COc1cc(/C=C/c2ccc(OC)c(O)c2)cc(OC)c1`, the TGI was 39.3 µM.
